According to the supplement of paper PMC10307832:

What was measured:
Experiment in all cases: relative viability (nuclei count vs DMSO), 5 days (fraction); higher = more cells survive
OSI-027 + Decitabine = compound: COc1cccc2cc(-c3nc([C@H]4CC[C@H](C(=O)O)CC4)n4ncnc(N)c34)[nH]c12 [OSI-027] + Nc1ncn([C@H]2C[C@H](O)[C@@H](CO)O2)c(=O)n1 [Decitabine] (partner 2 µM)
Summary of the method: (§1)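 Each reported value is a median over duplicate plates. It expresses relative viability: treated-well nuclei count divided by vehicle-well nuclei count. Lung cancer cell lines in 1536-well plates were dosed by pin tool a day after seeding, alone with one drug or with a fixed anchor-drug dose plus five library-drug doses (not always all listed) in √10 steps, and nuclei were counted after 5 days.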

Vemurafenib + Navitoclax = compound: CCCS(=O)(=O)Nc1ccc(F)c(C(=O)c2c[nH]c3ncc(-c4ccc(Cl)cc4)cc23)c1F [Vemurafenib] + CC1(C)CCC(c2ccc(Cl)cc2)=C(CN2CCN(c3ccc(C(=O)NS(=O)(=O)c4ccc(N[C@H](CCN5CCOCC5)CSc5ccccc5)c(S(=O)(=O)C(F)(F)F)c4)cc3)CC2)C1 [Navitoclax] (partner 0.5 µM)
Summary of the method: as §1

Vemurafenib + Pictilisib = compound: CCCS(=O)(=O)Nc1ccc(F)c(C(=O)c2c[nH]c3ncc(-c4ccc(Cl)cc4)cc23)c1F [Vemurafenib] + CS(=O)(=O)N1CCN(Cc2cc3nc(-c4cccc5[nH]ncc45)nc(N4CCOCC4)c3s2)CC1 [Pictilisib] (partner 1 µM)
Summary of the method: as §1

OSI-027 + Navitoclax = compound: COc1cccc2cc(-c3nc([C@H]4CC[C@H](C(=O)O)CC4)n4ncnc(N)c34)[nH]c12 [OSI-027] + CC1(C)CCC(c2ccc(Cl)cc2)=C(CN2CCN(c3ccc(C(=O)NS(=O)(=O)c4ccc(N[C@H](CCN5CCOCC5)CSc5ccccc5)c(S(=O)(=O)C(F)(F)F)c4)cc3)CC2)C1 [Navitoclax] (partner 0.5 µM)
Summary of the method: as §1

## UMC-11
OSI-027 + Decitabine; first compound 0.01 µM
  relative viability: 0.612
OSI-027 + Decitabine; first compound 0.03162 µM
  relative viability: 0.647
OSI-027 + Decitabine; first compound 0.1 µM
  relative viability: 0.52
OSI-027 + Decitabine; first compound 0.3162 µM
  relative viability: 0.492
OSI-027 + Decitabine; first compound 1 µM
  relative viability: 0.417
Vemurafenib + Navitoclax; first compound 0.03162 µM
  relative viability: 0.336
Vemurafenib + Navitoclax; first compound 0.1 µM
  relative viability: 0.327
Vemurafenib + Navitoclax; first compound 0.3162 µM
  relative viability: 0.374
Vemurafenib + Navitoclax; first compound 1 µM
  relative viability: 0.319
Vemurafenib + Pictilisib; first compound 0.03162 µM
  relative viability: 0.867
Vemurafenib + Pictilisib; first compound 0.1 µM
  relative viability: 0.801
Vemurafenib + Pictilisib; first compound 0.3162 µM
  relative viability: 0.714
Vemurafenib + Pictilisib; first compound 1 µM
  relative viability: 0.348
OSI-027 + Navitoclax; first compound 0.01 µM
  relative viability: 0.317
OSI-027 + Navitoclax; first compound 0.03162 µM
  relative viability: 0.29
OSI-027 + Navitoclax; first compound 0.1 µM
  relative viability: 0.29
OSI-027 + Navitoclax; first compound 0.3162 µM
  relative viability: 0.257
OSI-027 + Navitoclax; first compound 1 µM
  relative viability: 0.216
